The numbers were not newly measured in patent EP0417819A1, “Psycho-pharmacological peptides” (AKZO N.V., priority 1989, dated 1991), which cites them from elsewhere.

Entries after “also recorded” stand apart in the source; their conditions may differ.

The subject of this series is extinction of the (active) avoidance behaviour of rats. The following applies: pole climbing test, state of the art, result in words.

On to a-endorphin, for which the “extinction of the (active) avoidance behaviour” value (shortened to “extinction”) is “inhibit the extinction of the avoidance behaviour; also recorded: retarded”. “y-endorphin (YGGFMTSEKSQTPLVTL; Beta-endorphin; UniProt P01189 237-253, looked up, fragment) [β-endorphin (1-17)]”: the “extinction” value is “accelerate the extinction of the avoidance behaviour”. For the substance “met-enkephalin (YGGFM; Met-enkephalin; UniProt P01189 237-241, looked up) [smaller peptide fragment derived from β-endorphin]”, the “extinction” value was “inhibit the extinction of the avoidance behaviour”. With “β-endorphin (YGGFMTSEKSQTPLVTLFKNAIIKNAYKKGE; Beta-endorphin; UniProt P01189 237-267, looked up) [(59-89) fragments of β-LPH]”, the “extinction” value is recorded as “delays the extinction”.
